# Where two headings read alike, the source gives them in different places.
# Tests used:
# [1] = target: T1, recombinant GST-FXR fusion protein (Homo sapiens, UniProt Q96RI1); assay: FXR activity at the molecular level (AlphaScreen); type: biochemical
# T1 sequence (Q96RI1 1-486): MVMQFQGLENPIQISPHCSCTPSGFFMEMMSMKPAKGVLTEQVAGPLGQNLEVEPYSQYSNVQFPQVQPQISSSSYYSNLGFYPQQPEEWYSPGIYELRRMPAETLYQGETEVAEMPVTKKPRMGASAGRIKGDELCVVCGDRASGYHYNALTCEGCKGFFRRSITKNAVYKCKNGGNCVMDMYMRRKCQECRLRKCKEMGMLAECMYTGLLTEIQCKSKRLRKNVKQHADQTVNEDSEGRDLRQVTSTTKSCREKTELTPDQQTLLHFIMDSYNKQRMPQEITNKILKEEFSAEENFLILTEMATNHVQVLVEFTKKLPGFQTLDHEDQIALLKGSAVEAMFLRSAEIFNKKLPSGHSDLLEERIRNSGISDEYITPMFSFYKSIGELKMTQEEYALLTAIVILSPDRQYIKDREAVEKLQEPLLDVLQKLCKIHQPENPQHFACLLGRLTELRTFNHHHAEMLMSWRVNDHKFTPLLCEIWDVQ
# Procedure: Test Method for FXR Activity at the Molecular Level
# FXR activity was determined using recombinant GST-FXR fusion protein by Perkin Elmer's AlphaScreen detection reagent. The reaction in this method was carried out in a 384-well plate, and the total reaction volume was 15 μL. The mixture of protein, agonist, co-regulatory factor, AlphaScreen® acceptor beads and AlphaScreen® donor beads was reacted in a buffer containing Tris-HCl 50 mM (pH7.4), 50 mM NaCl, BSA 0.1%, and 1 mM DTT. The FXR activity was reflected by the fluorescence signal intensity at 570 nm wavelength detected by the Envision fluorescence detector. The value of EC50 was calculated by the software Graphpad Prism 5.
# FXR receptor = target: T2, FXR receptor (Homo sapiens, UniProt Q96RI1); assay: FXR activity at the cell level (FXRE luciferase reporter in 293T cells); type: cell-based; settings: for Activity relative to OCA (%) 10 μM: luciferase reporter
# T2 construct: expressed in transfected cells; host or cells: 293T cells
# T2 sequence (Q96RI1 1-486): T1 sequence (Q96RI1 1-486)
# Procedure: The cells were cultured for 24 hours to ensure plasmid expression. Then the FXR receptor agonist to be tested was added and acted for 18 hours. The fluorescence intensity was detected using luciferase kit (steady-Glo Luciferase Assay system) to reflect the compound's activation efficiency on the FXR receptor. […] The appropriate concentration interval was selected, and the dose-dependent relationship, that is, the EC50 value, was calculated.
# [2] = 293T cells, FXRE luciferase reporter, read-out: EC50 (cell level)
SMILES,EC50 [1] [nM],Activity relative to OCA (%) 10 μM (FXR receptor; 293T cells) [%],EC50 (FXR receptor; [2]) [nM],EC50 (FXR receptor) [nM]
Cn1cc(-c2noc(=O)[nH]2)c2cc(N3CCC(OCc4c(-c5c(Cl)cccc5Cl)noc4C4CC4)CC3)ccc21 [Example 19],3140,132,285,
CC(C)c1onc(-c2c(Cl)cccc2Cl)c1COC1CCN(c2ccc(-c3noc(=O)[nH]3)cc2)CC1 [Example 11],439,164,0.7,
Cc1ccccc1-c1noc(C2CC2)c1COC1CC2CCC(C1)N2c1ccc(-c2noc(=O)[nH]2)cn1 (stereo not drawn) [Example 40],94.4,105,2.11,
O=c1[nH]c(-c2ccc(N3CCC(OCc4c(-c5c(Cl)cccc5Cl)noc4C4CC4)CC3)cc2)no1 [Example 2],72,174,1,
O=c1[nH]c(-c2ccc(N3CCC(OCc4c(-c5ccccc5OC(F)(F)F)noc4C4CC4)CC3)c(F)c2)no1 [Example 28],380,107,0.617,
O=c1[nH]c(-c2ccc(N3CCC(OCc4c(-c5ccccc5OC(F)(F)F)noc4C4CC4)CC3)cc2)no1 [Example 9],55,90,4,
Cc1ccccc1-c1noc(C2CC2)c1COC1CC2CCC(C1)N2c1ccc(-c2noc(=O)[nH]2)c(F)c1 (stereo not drawn) [Example 42],80.4,106,0.96,
O=c1[nH]c(-c2ccc(N3CCC(OCc4c(-c5c(Cl)cccc5Cl)noc4-c4ccccc4)CC3)cc2)no1 [Example 12],2880,63,35,
O=c1[nH]c(-c2ccc(N3C4CCC3CC(OCc3c(-c5ccccc5OC(F)(F)F)noc3C3CC3)C4)cc2F)no1 (stereo not drawn) [Example 38],51.3,102,0.304,
O=c1[nH]c(-c2ccc(N3CCC(OCc4c(-c5ccccc5OC(F)(F)F)noc4C4CC4)CC3)cc2F)no1 [Example 29],108,120,0.938,
O=c1[nH]c(-c2ccc(N3CCC(OCc4c(-c5c(Cl)cccc5Cl)noc4C4CC4)CC3)cn2)no1 [Example 14],598,74,5,
O=c1[nH]c(-c2cccc(N3CCC(OCc4c(-c5c(Cl)cccc5Cl)noc4C4CC4)C3)c2)no1 (stereo not drawn) [Example 5],4700,83,844,
S=c1[nH]c(-c2ccc(N3CCC(OCc4c(-c5c(Cl)cccc5Cl)noc4C4CC4)CC3)cc2)no1 [Example 20],5470,146,5,
O=c1[nH]c(-c2ccc(N3C4CCC3CC(OCc3c(-c5c(Cl)cccc5Cl)noc3C3CC3)C4)nc2)no1 (stereo not drawn) [Example 32],4.33,103,0.0783,
O=c1[nH]c(-c2ccc(N3C4CCC3CC(OCc3c(-c5ccccc5OC(F)F)noc3C3CC3)C4)cc2F)no1 (stereo not drawn) [Example 41],28.5,108,0.718,
O=c1[nH]c(-c2ccc(N3CCC(OCc4c(-c5ccccc5C(F)(F)F)noc4C4CC4)CC3)nc2)no1 [Example 21],96.7,117,1.32,
O=c1[nH]c(-c2c(F)cc(N3CCC(OCc4c(-c5ccccc5OC(F)(F)F)noc4C4CC4)CC3)cc2F)no1 [Example 30],89,120,0.255,
O=c1[nH]c(-c2ccc(N3C4CCC3CC(OCc3c(-c5ccccc5OC(F)(F)F)noc3C3CC3)C4)nc2)no1 (stereo not drawn) [Example 34],19.7,122,0.388,
O=c1[nH]c(-c2ccc(N3CCC(OCc4c(-c5c(Cl)cccc5Cl)noc4C4CC4)CC3)cc2F)no1 [Example 16],195,168,0.2,
O=c1[nH]c(-c2cccc(N3CCCC(OCc4c(-c5c(Cl)cccc5Cl)noc4C4CC4)CC3)c2)no1 (stereo not drawn) [Example 3],1810,87,14,

SMILES,EC50 [1] [nM],Activity relative to OCA (%) 10 μM (FXR receptor; 293T cells) [%],EC50 (FXR receptor; [2]) [nM],EC50 (FXR receptor) [nM]
O=c1[nH]c(-c2ccc(N3CCC(OCc4c(-c5ccccc5OC(F)(F)F)noc4C4CC4)CC3)nc2)no1 [Example 26],70,103,0.254,
O=c1[nH]c(-c2ccc(N3C4CCC3CC(OCc3c(-c5ccccc5C(F)(F)F)noc3C3CC3)C4)nc2)no1 (stereo not drawn) [Example 33],18.8,141,0.387,
O=c1[nH]c(-c2ccc(N3C4CCC3CC(OCc3c(-c5c(Cl)cccc5Cl)noc3C3CC3)C4)cc2)no1 (stereo not drawn) [Example 7],6.7,88,6,
O=c1[nH]c(-c2ccc(N3C4CCC3CC(OCc3c(-c5c(F)cccc5F)noc3C3CC3)C4)nc2)no1 (stereo not drawn) [Example 31],11.3,116,0.608,
O=c1[nH]c(-c2ccc(N3CCC(OCc4c(-c5ccccc5C(F)(F)F)noc4C4CC4)CC3)c(F)c2)no1 [Example 23],392,109,2.22,
O=c1[nH]c(-c2c(F)cc(N3CCC(OCc4c(-c5c(Cl)cccc5Cl)noc4C4CC4)CC3)cc2F)no1 [Example 17],257,161,0.3,
O=c1[nH]c(-c2ccc(N3CCC(OCc4c(-c5c(Cl)cccc5Cl)noc4C4CC4)C3)cc2)no1 (stereo not drawn) [Example 6],3920,99,32,
O=c1[nH]c(-c2ccc(N3C4CCC3CC(OCc3c(-c5ccccc5C(F)(F)F)noc3C3CC3)C4)cc2F)no1 (stereo not drawn) [Example 37],50.6,102,0.284,
O=c1[nH]c(-c2c(F)cc(N3CCC(OCc4c(-c5ccccc5C(F)(F)F)noc4C4CC4)CC3)cc2F)no1 [Example 25],84.7,103,0.12,
O=c1[nH]c(-c2ccc(N3CCC(OCc4c(-c5ccccc5C(F)(F)F)noc4C4CC4)CC3)cc2F)no1 [Example 24],59,105,0.196,
O=c1[nH]c(-c2ccc(N3CCC(OCc4c(-c5c(Cl)cccc5Cl)noc4C4CC4)CC3)nc2)no1 [Example 13],178,111,0.7,
Cc1onc(-c2c(Cl)cccc2Cl)c1COC1CCN(c2ccc(-c3noc(=O)[nH]3)cc2)CC1 [Example 10],1040,202,0.2,
O=c1[nH]c(-c2ccc(N3CCC(OCc4c(-c5ccccc5OC(F)(F)F)noc4C4CC4)CC3)cn2)no1 [Example 27],20.9,106,0.357,
O=c1[nH]c(-c2ccc(N3C4CCC3CC(OCc3c(-c5c(Cl)cccc5Cl)noc3C3CC3)C4)cc2F)no1 (stereo not drawn) [Example 36],4.22,102,,0.0317
O=c1[nH]c(-c2ccc(N3C4CCC3CC(OCc3c(-c5ccccc5OC(F)F)noc3C3CC3)C4)nc2)no1 (stereo not drawn) [Example 39],25,108,1.49,
O=c1[nH]c(-c2ccc(N3C4CCC3CC(OCc3c(-c5c(F)cccc5F)noc3C3CC3)C4)cc2F)no1 (stereo not drawn) [Example 35],18.5,117,0.318,
Cc1cc(-c2noc(=O)[nH]2)ccc1N1CCC(OCc2c(-c3c(Cl)cccc3Cl)noc2C2CC2)CC1 [Example 15],2650,159,3,
O=c1[nH]c(-c2ccc(N3CCC(OCc4c(-c5ccccc5C(F)(F)F)noc4C4CC4)CC3)cn2)no1 [Example 22],386,108,1.99,
O=c1[nH]c(-c2ccc(N3CCC(OCc4c(-c5c(Cl)cccc5Cl)noc4C4CC4)CC3)c(F)c2)no1 [Example 18],614,150,2,
O=c1[nH]c(-c2ccc(N3CCCC(OCc4c(-c5c(Cl)cccc5Cl)noc4C4CC4)CC3)cc2)no1 (stereo not drawn) [Example 4],15,97,0.6,

# Reference: patent US12240841B2, “FXR small molecule agonist and preparation method therefor and use thereof” (Shanghai Institute of Materia Medica, Chinese Academy of …, priority 2019, dated 2025)
